Assay results taken from publication PMC8291485, “Development of New Benzylpiperazine Derivatives as σ1 Receptor Ligands with in Vivo Antinociceptive and Anti-Allodynic Effects” (ACS Chemical Neuroscience, 2021).
Entries after “also recorded” stand apart in the source; their conditions may differ. Like-named read-outs stand apart in the source and are kept apart here.

Legend:
[1] = test system: CCI-induced mechanical allodynia; test: Chronic constriction injury (CCI) model, von Frey mechanical allodynia; format: in vivo, CD-1 mice; settings: for anti-allodynic effect in the CCI model (result in words): von Frey, 20–80 min post-injection, 15 10–60 mg/kg i.p. (oxalate salt)
Method: CCI was introduced in CD-1 mice that were first anesthetized with isoflurane as described by Hoot et al.[66] and Cirino et al.[35] to induce mechanical allodynia.[51]−[54] After anesthetization, mice were subjected to surgery where an incision was made along the surface of the biceps femoris of the right hind paw.[66] Blunt forceps were used to split the muscle and expose the right sciatic nerve. The tips of two 0.1–10 μL pipet tips facing opposite directions were passed under the sciatic nerve to allow for easy passing of two sutures under the nerve, 1 mm apart. The sutures were tied loosely around the nerve and knotted twice, and the skin was closed with 29 mm skin staples. Mice were given a 7 day recovery period prior to the baseline von Frey testing as described below to confirm the induction of hyperalgesia in each mouse. […] Allodynic mice were then administered (i.p.) either vehicle (saline), morphine (10 mg/kg, i.p.), gabapentin (50 mg/kg, i.p.), CM304 (45 mg/kg, i.p.), or compound 15 (10–60 mg/kg, i.p.). Note that gabapentin was tested 1 h postinjection to circumvent known sedative effects that may confound the assay.[67] Each mouse was then tested for the modulation of tactile allodynia every 20 min up until 80 min post-injection with the use of von Frey testing. The assessment of mechanical allodynia was performed to measure compound 15’s efficacy against CCI-induced allodynia as described.[51]−[54] Mice were habituated on a mesh platform for 1 h prior to testing. Filaments of increasing pressure (0.4–6 g) were applied and then held to the plantar surface of both the injured and uninjured hind paws of mice for approximately 1–2 s prior to drug administration to record baseline responses to a peripheral stimulus. The filaments were applied with increasing strengths, and threshold responses were defined as two hind paw responses per trial of the same filament strength. Control or test compounds were administered (i.p.), and paw-withdrawal thresholds were again recorded from 20 to 80 min postinjection. Each hind paw was tested in a counterbalanced manner. Each time was measured in triplicate and then averaged. Responsiveness was a clear withdrawal, shaking, or licking of the paw. To account for variability between mice, data are presented as the percent of baseline paw withdrawal thresholds following filament stimulation of the ipsilateral hind paw. The following equation was used: % anti-allodynia = 100 × ([mean paw withdrawal force {g} in control group – paw withdrawal force {g} of each mouse]/mean paw withdrawal force [g] in control group).

σ2R = target: T1, σ2R (Rattus norvegicus, UniProt Q5U3Y7); design: method as in PMID 22784008, PMID 31258480, PMID 31981633, PMID 32691179, PMID 28644012; settings: cited from earlier work
T1 sequence (Q5U3Y7 1-176): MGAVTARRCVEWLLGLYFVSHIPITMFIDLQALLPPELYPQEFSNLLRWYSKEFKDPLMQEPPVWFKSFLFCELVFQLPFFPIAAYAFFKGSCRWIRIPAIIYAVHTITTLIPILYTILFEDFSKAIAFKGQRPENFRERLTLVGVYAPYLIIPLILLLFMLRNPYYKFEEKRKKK

σ1R [2] = target: σ1R; design: method as in PMID 22784008, PMID 31258480, PMID 31981633, PMID 32691179, PMID 28644012; settings: cited from earlier work; for Ki: Figure 1, read-out: Ki σ1
σ1R [3] = target: T2, σ1R (Cavia porcellus, UniProt Q60492); design: method as in PMID 27262426; settings: lead compound 8, selectivity ratio; cited from earlier work
T2 construct: from tissue; host or cells: guinea pig brain membrane homogenates
T2 sequence (Q60492 whole entry): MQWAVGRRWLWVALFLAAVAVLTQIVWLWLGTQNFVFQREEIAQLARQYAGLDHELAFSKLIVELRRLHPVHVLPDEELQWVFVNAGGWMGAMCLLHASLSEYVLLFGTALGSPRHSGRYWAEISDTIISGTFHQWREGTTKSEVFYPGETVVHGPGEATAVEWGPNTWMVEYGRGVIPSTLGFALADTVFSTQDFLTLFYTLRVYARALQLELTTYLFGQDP

σ1R [4] = target: T2, σ1R; test: σ1R radioligand binding assay ([3H]-pentazocine, guinea pig brain membrane homogenates); settings: for Ki: mean ± SD of three independent experiments, [3H]-pentazocine, free base; for Ki σ2/Ki σ1: σ1R selectivity ratio over σ2R
Method: The binding assay for σ1R was carried out using guinea pig brain membrane homogenates according to DeHaven-Hudkins et al.,[58] while the binding assay for σ2R was performed following experimental procedures described by Mach et al.[59] Inhibitory constants (Ki) were calculated using the radioligand binding analysis software EBDA/Ligand (Elsevier/Biosoft).

[5] = test system: formalin-induced inflammatory nociception; test: Formalin-induced inflammation assay (time spent licking the paw); format: in vivo; settings: C57BL/6J mice, 3–30 mg/kg i.p.; 15 as oxalate salt
Method: After a 10 min pretreatment (i.p.) of vehicle control (saline), CM304 (3–30 mg/kg, i.p.), or compound 15 (3–30 mg/kg, i.p.), an intraplantar (i.pl.) injection of 5% formalin ([…] in 15 μL) was administered into the right hind paw. Time spent licking the right hind paw was recorded in 5 min intervals for 60 min following injection. The last 55 min of assessment was used to determine the inflammatory response stimulus. Data were analyzed as the summed duration of licking hind paw.
All data are presented as mean ± SEM. Significance is indicated as *p < 0.05 and was analyzed using two-way ANOVA with Tukey’s post hoc analysis. Statistical analysis was performed with the use of GraphPad Prism 9.0 software. […]. The rotarod data are expressed as the % change from baseline performance for each animal’s baseline response.

Ki (σ1R [4]) [nM]	Ki σ2/Ki σ1 (σ1R [4])	Structure (SMILES)	Ki (σ1R [2]) [nM]	further results
		O=c1sc2cc(CCCF)ccc2n1CCN1CCCCCC1 [Compound 1]	0.96	time of peak anti-allodynic effect ([1]; CD-1 mice, CM304 45 mg/kg i.p., began to diminish at 60 min): 40 min; anti-allodynic effect in the CCI model (result in words) ([1]; CD-1 mice, CM304 45 mg/kg i.p.): anti-allodynic effects that are comparable to those of gabapentin; Ki (σ2R; Figure 1, read-out: Ki σ2): 467 nM; Ki σ2/Ki σ1 (σ1R [2]; printed in Figure 1, σ1R selectivity): > 486
		COc1cc2c(cc1OC)CN(CCCCn1c(=O)n(C)c3ccccc31)CC2 [Compound 3, 1-(4-(6,7-dimethoxy-3,4-dihydroisoquinolin-2(1H)-yl)butyl)-3-methyl-1H-benzo[d]imidazol-2(3H)-one]	560	Ki σ1/Ki σ2 (σ2R; printed in Figure 1, σ2R selectivity): > 1,302
		OCCCN1CCCC2CC1c1cc(-c3ccc(C(F)(F)F)cc3)ccc12 (stereo not drawn) [Compound 4]	> 1000	
		CC(CCCn1c(=O)sc2cc(F)ccc21)N1CCN(C2CCCCC2)CC1 (stereo not drawn) [Compound 5]	2.4	
		O=c1oc2ccc(Cl)cc2n1CCCCN1CCCCCC1 [Compound 6]	2.3	
		COc1ccc(CN2CCN(C(=O)CCCCC3CCSS3)CC2)cc1 (stereo not drawn) [Compound 8]		Ki σ2/Ki σ1 (σ1R [3]): 432
18.1 ± 0.44	64	COc1ccc(CN2CCN(C(=O)CCCCc3ccccc3)CC2)cc1 [Compound 13, 1-{4-[(4-Methoxyphenyl)methyl]piperazin-1-yl}-5-phenylpentan-1-one]		
13.3 ± 0.22	124	COc1ccc(CN2CCN(C(=O)CCCc3ccccc3)CC2)cc1 [Compound 14, 1-{4-[(4-Methoxyphenyl)methyl]piperazin-1-yl}-4-phenylbutan-1-one]		melting point: 91 to 93.9 °C
1.6 ± 0.05	886	COc1ccc(CN2CCN(C(=O)CCC3CCCCC3)CC2)cc1 [Compound 15, 3-Cyclohexyl-1-{4-[(4-methoxyphenyl)methyl]piperazin-1-yl}propan-1-one]		paw withdrawal thresholds in the CCI model (result in words) ([1]; 60 mg/kg, i.p., at 20, 60, and 80 min post-injection, p < 0.05): significant increases in withdrawal thresholds; anti-allodynic effect in the CCI model (result in words) ([1]; CD-1 mice, CM304 45 mg/kg i.p.): dose-dependent (3–60 mg/kg, i.p.) antinociception and anti-allodynic effects; also recorded: significant dose-dependent anti-allodynic effects; also recorded: significant antinociceptive and anti-allodynic effects; antinociception in the formalin assay (result in words) [5]: dose-dependent (3–60 mg/kg, i.p.) antinociception and anti-allodynic effects; also recorded: significant dose-dependent antinociception; also recorded: dose-dependent increase in % antinociception; also recorded: significant antinociceptive and anti-allodynic effects
11.3 ± 0.26	351	COc1ccc(CN2CCN(C(=O)/C=C/c3ccccc3)CC2)cc1 [Compound 16, (2E)-1-{4-[(4-Methoxyphenyl)methyl]piperazin-1-yl}-3-phenylprop-2-en-1-one]		melting point: 120.8 to 122.6 °C
102 ± 0.6	43	COc1ccc(CN2CCN(C(=O)CCCOc3ccccc3)CC2)cc1 [Compound 20, 1-{4-[(4-Methoxyphenyl)methyl]piperazin-1-yl}-4-phenoxybutan-1-one]		melting point: 88.3 to 91.3 °C
8.8 ± 0.22	370	COc1ccc(CN2CCN(C(=O)CCc3ccccc3)CC2)cc1 [Compound 21, 1-{4-[(4-Methoxyphenyl)methyl]piperazin-1-yl}-3-phenylpropan-1-one]		
6.1 ± 0.1	423	O=C(CCCCc1ccccc1)N1CCN(Cc2ccc(CO)cc2)CC1 [Compound 24, 1-(4-{[4-(Hydroxymethyl)phenyl]methyl}piperazin-1-yl)-5-phenylpentan-1-one]		
		FCCC1Cc2ccccc2C2(CCC(N3CCN(C4CCCCC4)CC3)CC2)O1 (stereo not drawn) [cis-7]	19	
		FCCC1Cc2ccccc2C2(CCC(N3CCN(C4CCCCC4)CC3)CC2)O1 (stereo not drawn) [trans-7]	12	

Structure (SMILES)	Ki (σ1R [4]) [nM]	Ki σ2/Ki σ1 (σ1R [4])	Ki (σ1R [2]) [nM]	further results
COc1ccc(CN2CCN(C(=O)Cc3ccccc3)CC2)cc1 [Compound 22, 1-{4-[(4-Methoxyphenyl)methyl]piperazin-1-yl}-2-phenylethan-1-one]	145 ± 0.5	160		melting point: 97.6 to 99.8 °C
